Target: T1, KRAS G12C 1-169, his-tagged protein, GDP-loaded (Homo sapiens, UniProt P01116, G12C)
T1 construct: KRAS G12C 1-169, his-tagged protein, GDP-loaded
Assay: Covalent binding (% modification) to KRAS G12C by mass spectrometry
Description: Test compounds were prepared as 10 mM stock solutions in DMSO (Fisher cat # BP-231-100). KRAS G12C 1-169, his-tagged protein, GDP-loaded was diluted to 2 μm in buffer (20 mM Hepes, 150 mM NaCl, 1 mM MgCl2). Compounds were tested for activity as follows:
Compounds were diluted to 50× final test concentration in DMSO in 96-well storage plates. Compound stock solutions were vortexed before use and observed carefully for any sign of precipitation. Dilutions were as follow: • For 100 μM final compound concentration, compounds were diluted to 5000 μM (5 μl 10 mM compound stock+5 μl DMSO and mixed well by pipetting. • For 30 μM final compound concentration, compounds were diluted to 1500 μM (3 μl 10 mM compound stock+17 μl DMSO) and mixed well by pipetting. • For 10 μM final compound concentration, compounds were diluted to 500 μM (2 μl 10 mM compound stock+38 μl DMSO) and mixed well by pipetting. 49 μl of the stock protein solution was added to each well of a 96-well PCR plate (Fisher cat #1423027). 1 μl of the diluted 50× compounds were added to appropriate wells in the PCR plate using 12-channel pipettor. Reactions were mixed carefully and thoroughly by pipetting up/down with a 200·1 multi-channel pipettor. […] 5 μl of 2% formic acid (Fisher cat # A117) in DI H2O was then added to each well followed by mixing with a pipette. The plate was then resealed with aluminum seal and stored on dry ice until analyzed as described below.
The above described assays were analyzed by mass spectrometry according to one of the following two procedures:
The MS instrument is set to positive polarity, 2 GHz resolution, and low mass (1700) mode and allowed to equilibrate for 30 minutes. The instrument is then calibrated, switched to acquisition mode and the appropriate method loaded.
After another 30 minute equilibration time, a blank batch (i.e., buffer) is run to ensure equipment is operating properly. The samples are thawed at 37° C. for 10 minutes, briefly centrifuged, and transfer to the bench top. Wells A1 and H12 are spiked with 1 uL 500 uM internal standard peptide, and the plates centrifuged at 2000×g for 5 minutes. The method is then run and masses of each individual well recorded.
The masses (for which integration data is desired) for each well are pasted into the platemap and exported from the analysis. Masses for the internal standards are exported as well. The data at 50 ppm is extracted for the +19 charge state, and identity of well A1 is assigned using the internal standard spike and integrated. Peak data is exported as a TOF list and the above steps are repeated individually, for the +20, 21, 22, 23, 24, and 25 charge states.
The masses and peak intensities of KRAS G12C protein species were measured using a Dionex RSLCnano system (Thermo Scientific) connected to a Q Exactive Plus mass spectrometer (Thermo Scientific).
[…] of sample was each loaded onto a Aeris™ 3.6 μm WIDEPORE C4 200 Å, LC Column 50×2.1 mm column maintained at 40° C. at a flow rate of 600 μl min^−1 with […] (0.1% formic acid in acetonitrile). The liquid chromatography conditions were 20% solvent B for 1 min, 20% to 60% solvent B for 1.5 min, 60% to 90% solvent for 0.5 min, 90% solvent B for 0.2 min, 90% to 20% solvent B for 0.2 min, and then equilibrated for 1.6 min before the following sample injection. The flow rate was maintained at 600 μl min^−1 throughout the sample analysis.
The mass spectrometer was operated in profile mode at a resolution of 17500, 5 microscans, using 50 msec max injection time and an AGC target of 1e6, and a full mass range from 800-1850 m/z was recorded. The HCD trapping gas was optimized for maximum sensitivity for intact proteins. The ionization method was electrospray ionization, which used a spray voltage of 4 kV, sheath gas flow set to 50 au, auxiliary gas flow set to 10 au and sweep gas flow set to 1 au. […]

[1] = covalent binding to KRAS G12C after a three minute incubation period
[2] = covalent binding to KRAS G12C after a ten minute incubation period

Row | Structure (SMILES) | Binding % [1] | Binding % [2]
1 | C=CC(=O)N1C[C@H](C)N(c2nc(N3CC(N(C)C)C3)nc3c(F)c(-c4c(C)ccc5[nH]ncc45)c(Cl)cc23)C[C@H]1C (atropisomer, axis not shown) [Compound 130, 1-((2R,5S)-4-(6-chloro-2-(3-(dimethylamino)azetidin-1-yl)-8-fluoro-7-((R)-5-methyl-1H-indazol-4-yl)quinazolin-4-yl)-2,5-dimethyl-piperazin-1-yl) prop-2-en-1-one] | +++ (+++ indicates binding activity greater than 90%) | –
2 | C=CC(=O)N1[C@H](C)CN(c2nc(OC3CCN(C4CC4)CC3)nc3c(F)c(-c4c(C)ccc5[nH]ncc45)c(Cl)cc23)C[C@@H]1C [Compound 37, 1-((2S,6R)-4-(6-chloro-2-((1-cyclopropyl-piperidin-4-yl)oxy)-8-fluoro-7-(5-methyl-1H-indazol-4-yl)quinazolin-4-yl)-2,6-dimethyl-piperazin-1-yl) prop-2-en-1-one] | – | ++ (++ indicates binding activity from 50 to 90%)
3 | C=CC(=O)N1C[C@H](C)N(c2nc(NC3CCN(C4CC4)CC3)nc3c(F)c(-c4c(C)ccc5[nH]ncc45)c(Cl)cc23)C[C@H]1C [Compound 50, 1-((2R,5S)-4-(6-chloro-2-((1-cyclopropyl-piperidin-4-yl)amino)-8-fluoro-7-(5-methyl-1H-indazol-4-yl)quinazolin-4-yl)-2,5-dimethyl-piperazin-1-yl) prop-2-en-1-one] | – | ++ (++ indicates binding activity from 50 to 90%)
4 | C=CC(=O)N1C[C@H](C)N(c2nc(N3CC(N(C)C)C3)nc3c(F)c(-c4ccccc4C(F)(F)F)c(Cl)cc23)C[C@H]1C [Compound 168, 1-((2R,5S)-4-(6-chloro-2-(3-(dimethylamino)azetidin-1-yl)-8-fluoro-7-(2-(trifluoromethyl)phenyl)quinazolin-4-yl)-2,5-dimethyl-piperazin-1-yl) prop-2-en-1-one] | ++ (++ indicates binding activity from 50 to 90%) | –
5 | C=CC(=O)N1C[C@H](C)N(c2nc(N3CC(N(C)C)C3)nc3c(F)c(-c4c(F)cccc4B4OC(C)(C)C(C)(C)O4)c(Cl)cc23)C[C@H]1C [Compound 185, 1-((2R,5S)-4-(6-chloro-2-(3-(dimethylamino)azetidin-1-yl)-8-fluoro-7-(2-fluoro-6-(4,4,5,5-tetramethyl-1,3,2-dioxaborolan-2-yl)phenyl)quinazolin-4-yl)-2,5-dimethyl-piperazin-1-yl) prop-2-en-1-one] | + (+ indicates binding activity greater than 0% and up to 50%) | –
6 | C=CC(=O)N1CCN(c2nc(N3CC(C)(N(C)C)C3)nc3c(F)c(-c4c(C)ccc5[nH]ncc45)c(Cl)cc23)C[C@H]1C [Compound 171, 1-((2R)-4-(6-chloro-2-(3-(dimethylamino)-3-methylazetidin-1-yl)-8-fluoro-7-(5-methyl-1H-indazol-4-yl)quinazolin-4-yl)-2-methyl-piperazin-1-yl) prop-2-en-1-one] | ++ (++ indicates binding activity from 50 to 90%) | –
7 | C=CC(=O)N1C[C@H](C)N(c2nc(N3CC(N(C)C4CCC4)C3)nc3c(F)c(-c4c(C)ccc5cn[nH]c45)c(Cl)cc23)C[C@H]1C [Compound 144, 1-((2R,5S)-4-(6-chloro-2-(3-(cyclobutyl (methyl)amino)azetidin-1-yl)-8-fluoro-7-(6-methyl-1H-indazol-7-yl)quinazolin-4-yl)-2,5-dimethyl-piperazin-1-yl) prop-2-en-1-one] | +++ (+++ indicates binding activity greater than 90%) | –
8 | C=CC(=O)N1C[C@H](C)N(c2nc(OCCN(CC)CC)nc3c(F)c(-c4c(C)ccc5[nH]ncc45)c(Cl)cc23)C[C@H]1C [Compound 77, 1-((2R,5S)-4-(6-chloro-2-(2-(diethylamino)ethoxy)-8-fluoro-7-(5-methyl-1H-indazol-4-yl)quinazolin-4-yl)-2,5-dimethyl-piperazin-1-yl) prop-2-en-1-one] | – | +++ (+++ indicates binding activity greater than 90%)
9 | C=CC(=O)N1CCN(c2nc(N)nc3c(F)c(-c4c(C)ccc5cn[nH]c45)c(Cl)cc23)[C@@H](C)C1 [Compound 5, 1-((3S)-4-(2-amino-6-chloro-8-fluoro-7-(6-methyl-1H-indazol-7-yl)quinazolin-4-yl)-3-methylpiperazin-1-yl)prop-2-en-1-one] | – | ++ (++ indicates binding activity from 50 to 90%)
10 | C=CC(=O)N1C[C@H](C)N(c2nc(OCCCN(C)C)nc3c(F)c(-c4cc(O)cc5ccccc45)c(Cl)cc23)C[C@H]1C [Compound 181, 1-((2R,5S)-4-(6-chloro-2-(3-(dimethylamino)propoxy)-8-fluoro-7-(3-hydroxy-naphthalen-1-yl)quinazolin-4-yl)-2,5-dimethyl-piperazin-1-yl) prop-2-en-1-one] | +++ (+++ indicates binding activity greater than 90%) | –
11 | C=CC(=O)N1C[C@H](C)N(c2nc(N3CC(N(C)C)C3)nc3c(F)c(-c4cc(O)cc5ccccc45)c(C(F)(F)F)cc23)C[C@H]1C [Compound 178, 1-((2R,5S)-4-(2-(3-(dimethylamino)azetidin-1-yl)-8-fluoro-7-(3-hydroxynaphthalen-1-yl)-6-(trifluoromethyl)quinazolin-4-yl)-2,5-dimethyl-piperazin-1-yl) prop-2-en-1-one] | +++ (+++ indicates binding activity greater than 90%) | –
12 | C=CC(=O)N1C[C@H](C)N(c2nc(N3CC(N(C)C)C3)nc3c(F)c(-c4c(O)cccc4F)c(Cl)cc23)C[C@H]1C (atropisomer, axis not shown) [Compound 53, 1-((2R,5S)-4-((R)-6-chloro-2-(3-(dimethylamino)azetidin-1-yl)-8-fluoro-7-(2-fluoro-6-hydroxyphenyl)quinazolin-4-yl)-2,5-dimethyl-piperazin-1-yl) prop-2-en-1-one] | – | + (+ indicates binding activity up to 50%)
13 | [2H]C([2H])([2H])N(C1CN(c2nc(N3C[C@@H](C)N(C(=O)C=C)C[C@@H]3C)c3cc(Cl)c(-c4c(C)ccc5[nH]ncc45)c(F)c3n2)C1)C([2H])([2H])[2H] (atropisomer, axis not shown) [Compound 226, 1-((2R,5S)-4-(6-chloro-2-(3-(bis(triduetero-methyl)amino)azetidin-1-yl)-8-fluoro-7-((R)-5-methyl-1H-indazol-4-yl)quinazolin-4-yl)-2,5-dimethyl-piperazin-1-yl) prop-2-en-1-one] | +++ (+++ indicates binding activity greater than 90%) | –
14 | C=CC(=O)N1C[C@@H](C)N(c2nc(N3CC(N(C)C)C3)nc3c(F)c(-c4c(C)ccc5[nH]ncc45)c(Cl)cc23)[C@@H](C)C1 [Compound 40, 1-((3S,5R)-4-(6-chloro-2-(3-(dimethylamino)azetidin-1-yl)-8-fluoro-7-(5-methyl-1H-indazol-4-yl)quinazolin-4-yl)-3,5-dimethyl-piperazin-1-yl) prop-2-en-1-one] | – | ++ (++ indicates binding activity from 50 to 90%)
15 | C=CC(=O)N1C[C@H](C)N(c2nc(N3CC(N(C)C)C3)nc3c(F)c(-c4c(O)cccc4F)c(C(F)(F)F)cc23)C[C@H]1C [Compound 206, 1-((2R,5S)-4-(2-(3-(dimethylamino)azetidin-1-yl)-8-fluoro-7-(2-fluoro-6-hydroxyphenyl)-6-(trifluoromethyl)quinazolin-4-yl)-2,5-dimethyl-piperazin-1-yl) prop-2-en-1-one] | +++ (+++ indicates binding activity greater than 90%) | –
